These results are taken from US20240408086A1, “USE OF LUVADAXISTAT FOR THE TREATMENT OF COGNITIVE IMPAIRMENT” (TAKEDA PHARMACEUTICAL COMPANY LIMITED, priority 2021, published 2024).

Where two headings read alike, the source gives them in different places.

The subject of data set [1] is adult patients with persistent negative symptoms of schizophrenia. Format: in vivo, human. The note with it: for PANSS NSFS, LS mean change from baseline to Week 12: placebo −3.1. From the text:
Compound (I) was orally administered in the form of a tablet once daily for up to 14 weeks. Compound (I) placebo-matching tablets were similarly orally administered once daily for up to 14 weeks. The treatment group remained undisclosed to the participant and study doctor/site personnel during the study unless there was an urgent medical need.
The primary endpoint evaluated was the change in negative symptoms, measured as the 12-week change from baseline in the Positive and Negative Syndrome Scale-Negative Symptom Factor Score (PANSS NSFS).

The test system of a further data set is Mouse. Put plainly: Poly I:C social interaction (acute). Format: in vivo. Further details: key: a + sign means efficacious; a − sign means not efficacious. The note with it: Single Dose. From the text: In Table 1, a + sign means efficacious, a − sign means not efficacious, and an empty cell indicates a dose was not tested.
Data set [2] concerns patients with schizophrenia. Put plainly: Phase 1b crossover study: safety and tolerability. The data set is classed as in vivo, human. The settings on record: 50 or 500 mg for 8 consecutive days. From the text:
NCT03359785 was a randomized, double-blind, placebo-controlled cross-over Phase 1b clinical trial in schizophrenia patients at a single site to evaluate PD effects, safety, tolerability, and pharmacokinetics of multiple oral doses of Compound (I). The objective of the study was to assess pharmacodynamic (PD) biomarkers of Compound (I) on measures related to cerebellar circuitry function and NMDA pharmacology that are known to be affected in schizophrenia.
Safety objectives included the incidence of treatment-emergent adverse events (TEAEs), laboratory tests, vital signs, and electrocardiogram (ECG) assessments.

Turning to `O=c1[nH]nc(CCc2ccc(C(F)(F)F)cc2)cc1O` [Compound (I), luvadaxistat], the “PANSS NSFS, LS mean change from baseline to Week 12” value is given as −3.3 in data set [1] (50 mg once daily, p=0.426 vs placebo); −3.4 in data set [1] (125 mg once daily, p=0.362 vs placebo); −2.5 in data set [1] (500 mg once daily, p=0.808 vs placebo). Besides, in data set [1] (50 mg, 125 mg, or 500 mg at Week 12), the “Improvement in PANSS NSFS versus placebo” value is given as “no significant improvements”. Moreover, the “Poly I:C social interaction (acute)” value in the data set on Mouse (0.3 mg/kg) is listed as “−”; with Mouse (1 mg/kg), “−”; with Mouse (3 mg/kg), “+”. The “Deaths, serious adverse events, TEAEs leading to discontinuation of study drug” value in data set [2] is recorded as “no deaths, serious adverse events (AEs), or TEAEs leading to discontinuation of study drug”. Also, in data set [2], the “Tolerability in the Phase 1b study” value is given as “generally well tolerated”.
